Laboratory results taken from article PMC10791687, “The Piezo channel is a mechano-sensitive complex component in the mammalian inner ear hair cell” (Nature Communications, 2024).

Target: T1, mPz1 (mouse Piezo1) (Mus musculus, UniProt E2JF22)
T1 construct: full-length, mPz1-IRES-GFP plasmid (clone from A. Patapoutian) in mouse Neuro2A cells; also purified/enriched mPz1 in planar lipid bilayer; homotrimer
Assay: single-channel recording in planar lipid bilayer
Assay type: biochemical
Conditions: purified mPz1, 500 mM KCl, 10 mM MOPS, pH 7.4

T1 sequence (E2JF22 whole entry): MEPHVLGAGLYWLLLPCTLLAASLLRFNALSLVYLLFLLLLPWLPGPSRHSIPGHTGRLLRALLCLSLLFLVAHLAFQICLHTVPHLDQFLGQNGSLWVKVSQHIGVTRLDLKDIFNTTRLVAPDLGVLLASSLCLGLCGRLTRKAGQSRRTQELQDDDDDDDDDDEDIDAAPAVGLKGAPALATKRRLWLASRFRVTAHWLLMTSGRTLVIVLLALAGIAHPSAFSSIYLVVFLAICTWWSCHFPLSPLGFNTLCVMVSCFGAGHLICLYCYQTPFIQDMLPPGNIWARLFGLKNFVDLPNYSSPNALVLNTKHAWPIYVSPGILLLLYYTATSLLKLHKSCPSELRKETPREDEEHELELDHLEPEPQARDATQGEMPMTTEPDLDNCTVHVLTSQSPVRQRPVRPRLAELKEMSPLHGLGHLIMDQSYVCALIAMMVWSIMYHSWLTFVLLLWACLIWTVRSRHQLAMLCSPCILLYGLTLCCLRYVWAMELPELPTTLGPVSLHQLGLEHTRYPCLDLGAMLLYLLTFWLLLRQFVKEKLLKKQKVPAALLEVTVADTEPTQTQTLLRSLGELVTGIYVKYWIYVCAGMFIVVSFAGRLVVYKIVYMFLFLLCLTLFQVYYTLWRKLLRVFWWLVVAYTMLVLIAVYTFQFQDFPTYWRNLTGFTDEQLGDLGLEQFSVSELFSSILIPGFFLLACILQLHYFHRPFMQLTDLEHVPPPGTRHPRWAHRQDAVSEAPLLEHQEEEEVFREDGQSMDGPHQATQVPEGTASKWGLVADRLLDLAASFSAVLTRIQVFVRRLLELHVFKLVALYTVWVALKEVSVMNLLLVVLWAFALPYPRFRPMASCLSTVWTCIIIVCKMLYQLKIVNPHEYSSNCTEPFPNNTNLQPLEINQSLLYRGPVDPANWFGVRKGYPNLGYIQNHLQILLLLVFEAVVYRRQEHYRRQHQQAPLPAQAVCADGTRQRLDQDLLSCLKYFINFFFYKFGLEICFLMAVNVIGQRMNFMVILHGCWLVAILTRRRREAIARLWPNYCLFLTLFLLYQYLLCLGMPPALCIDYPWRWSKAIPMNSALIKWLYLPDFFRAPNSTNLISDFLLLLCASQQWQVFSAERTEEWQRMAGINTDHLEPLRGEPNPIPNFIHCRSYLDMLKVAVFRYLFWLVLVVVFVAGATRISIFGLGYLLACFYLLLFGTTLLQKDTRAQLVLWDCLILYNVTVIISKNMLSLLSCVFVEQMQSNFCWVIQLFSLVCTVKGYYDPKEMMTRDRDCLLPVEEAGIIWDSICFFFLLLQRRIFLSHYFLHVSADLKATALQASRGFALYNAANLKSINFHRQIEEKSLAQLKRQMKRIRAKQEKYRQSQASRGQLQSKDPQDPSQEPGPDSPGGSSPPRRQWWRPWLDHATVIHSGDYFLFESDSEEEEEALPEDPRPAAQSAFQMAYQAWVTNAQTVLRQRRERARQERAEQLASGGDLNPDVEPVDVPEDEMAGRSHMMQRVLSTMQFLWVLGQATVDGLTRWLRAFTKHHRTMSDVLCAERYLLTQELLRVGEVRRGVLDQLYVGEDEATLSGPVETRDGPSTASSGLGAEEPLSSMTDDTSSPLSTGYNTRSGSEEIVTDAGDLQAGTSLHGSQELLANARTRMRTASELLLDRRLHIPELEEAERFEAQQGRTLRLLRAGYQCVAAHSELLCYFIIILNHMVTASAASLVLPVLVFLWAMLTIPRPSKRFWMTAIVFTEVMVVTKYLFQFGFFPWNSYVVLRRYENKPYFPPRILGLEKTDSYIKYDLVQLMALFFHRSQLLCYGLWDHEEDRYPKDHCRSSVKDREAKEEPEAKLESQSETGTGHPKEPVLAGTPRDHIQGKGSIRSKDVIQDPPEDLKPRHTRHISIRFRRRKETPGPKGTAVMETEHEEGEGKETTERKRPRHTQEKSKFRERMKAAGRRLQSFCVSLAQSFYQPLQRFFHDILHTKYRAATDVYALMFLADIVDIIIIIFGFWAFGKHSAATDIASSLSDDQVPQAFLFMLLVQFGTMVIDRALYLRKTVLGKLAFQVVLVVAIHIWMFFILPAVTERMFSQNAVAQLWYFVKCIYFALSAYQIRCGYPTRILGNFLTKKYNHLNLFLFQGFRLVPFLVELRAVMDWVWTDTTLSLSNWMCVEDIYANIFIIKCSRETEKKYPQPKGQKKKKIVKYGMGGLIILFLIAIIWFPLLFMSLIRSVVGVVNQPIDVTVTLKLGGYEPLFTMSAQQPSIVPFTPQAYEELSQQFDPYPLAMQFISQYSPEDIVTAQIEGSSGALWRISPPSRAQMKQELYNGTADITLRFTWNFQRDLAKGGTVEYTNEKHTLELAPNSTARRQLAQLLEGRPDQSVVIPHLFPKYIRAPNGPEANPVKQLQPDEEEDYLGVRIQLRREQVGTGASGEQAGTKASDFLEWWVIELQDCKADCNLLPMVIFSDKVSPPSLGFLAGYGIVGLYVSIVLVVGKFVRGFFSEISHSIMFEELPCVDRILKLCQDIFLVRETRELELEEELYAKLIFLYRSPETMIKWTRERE

CN[C@@H]1[C@H](O[C@H]2[C@H](O[C@H]3[C@H](O)[C@@H](O)[C@H](N=C(N)N)[C@@H](O)[C@@H]3N=C(N)N)O[C@@H](C)[C@]2(O)CO)O[C@@H](CO)[C@H](O)[C@H]1O [dihydrostreptomycin]
single-channel recording in planar lipid bilayer: DHS, GsMTx4, and ruthenium blocked the mPz1-channel activity in lipid bilayers
